Source: patent US12163169B2, “Inducible chimeric cytokine receptors” (Allogene Therapeutics, Inc., priority 2018, dated 2024)
“Also recorded” adds a separate entry of the source. Blank lines part the entries; values can stand above or below the molecule they belong to.

Experiments:
[1] = system: BCMA(1-54), TACI(1-165) and BAFFR(1-78) ectodomain chimeric cytokine receptors; experiment: HEK293T Stat reporter assay of TNFR2 superfamily ectodomain receptors with soluble BAFF trimers (Example 14); assay type: cell-based; conditions: 5 hours post-treatment
From the text: To test if the panel of ligand inducers and ectodomains can be further extended beyond the AP1903-FKBP(F36V) pairing, we tested signaling in response to other multimeric ligand inducers. As the Tumor Necrosis Family (TNF) superfamily of ligands are trimers, they engage their respective receptors in a multimeric fashion. Therefore, we fused ectodomains derived from the TNFR2 superfamily receptors, such as BCMA(1-54), TACI(1-165) and BAFFR(1-78), to the transmembrane and signaling domains of our chimeric cytokine receptors, and tested signaling in response to soluble trimeric ligand. Briefly, 20,000 HEK293T cells were plated into each well of a poly-L-lysine-coated 96-well flat-bottom plate and allowed to adhere overnight. The chimeric cytokine receptor (2.5 ng), a Stat response element that drives Firefly Luciferase (100 ng; Promega) and Renilla Luciferase control reporter vector (1 ng; Promega) were mixed in a final volume of 5 uL in Opti-MEM (Gibco) (“DNA mix”). 0.3 uL Lipofectamine 2000 (Invitrogen) in 5 uL Opti-MEM was incubated at room temperature for 5 minutes and then added to the DNA mix. […] 24 hours after transfection, cells were either left untreated, or treated with soluble BAFF or APRIL trimers diluted in serum-free media, and Stat reporter activity was determined 5 hours post-treatment using the Dual-Glo Luciferase Assay System (Promega). […]

CAR-T cells [2] = experiment: Live cell count and viability of EGFRvIII CAR-T cells grown with IL2, AP1903 or no treatment (Example 7); assay type: cell-based, human; conditions: for CAR-T cell growth with AP1903 (live cell count) / CAR-T cell viability with AP1903: EGFRvIII CAR-T cells; for CAR-T cell growth with AP1903 (live cell count): 8 days post production, FIG. 16; for CAR-T cell viability with AP1903: FIG. 17
From the text: (§1) In this study, lentiviral (pLVX) constructs were generated comprising an SFFV promoter followed by a kozak sequence, the inducible chimeric cytokine receptor, a T2A sequence, and a chimeric antigen receptor. The chimeric antigen receptor was directed towards cells expressing EGFRvIII. For comparison, lentiviral constructs with either TagBFP or GoCART instead of the inducible chimeric cytokine receptor were used. GoCART consists of a myristoylation sequence followed by a portion of MyD88 and CD40 fused to two repeats of FKBP(F36V).
(§2) The T cells were transduced with lentivirus 2 days after isolation, and 3 days later were FACS sorted by binding APC-labeled EGFRvIII. The sorted EGFRvIII+ cells were cultured until 14 days post isolation.
At day 14, the 0.5e6 cells were resuspended in a 24-well plate, and grown with either IL2, AP1903, or no treatment for 8 days post production.

CAR-T cells [3] = experiment: Cytokine measurement of CAR-T cells on day 2 and day 8 (Example 7); assay type: cell-based, human; conditions: for cytokine release without any treatment: day 2 and 8 post production, FIG. 23, FIG. 24; for autoactivation (cytokine release in the absence of small molecule): no treatment
From the text: as §1, §2
Cytokines were measured on day 2 and day 8. AP1903 data is shown FIG. 20 and FIG. 21. All values were normalized to untreated TagBFP-expressing CAR-T Cells. […] The IFN-related tails do incur some cytokine release.
Induction of cytokines at day 2 and 8 post production without any treatment was measured.

STAT5 [4] = experiment: STAT5 signaling by IL7Ra, IL2Rb and IFNAR2 derived cytotail fragments (Example 6, FIG. 11); assay type: cell-based; conditions: EpoR(237-338; L241G, L242P) tyrosine kinase activating domain, short (8 h) AP1903 treatment
Method: In this study, IL2Rb, IL7R, and […] cytotails were analyzed to identify tyrosines sufficient for key aspects of signaling. For instance, a segment of IL2Rb containing the STAT5-interacting tyrosines Y418 and Y436 might retain STAT5 signaling, but may lose PI3K signaling as this requires Y364 of the IL2Rb cytotail. Inducible chimeric cytokine receptors comprising the IL7R, IL2Rb, and IFNAR2 tails may include one or more tyrosine motifs within the cytotails. Elimination of one or more portions of the tail (e.g., the IL12Rb2 tail) in some cases results in removal of negative regulatory motifs and stronger signaling.
In this study, signaling by a variety of IL7Ra and IL2Rb derived fragments using the EpoR-based tyrosine kinase activating domain were tested. The following inducible chimeric cytokine receptors were tested in this study:
Constructs that are plotted include tyrosine effector domains derived from the IL7R and IL2Rb cytotails.

STAT4 = STAT4 luciferase reporter assay comparing tyrosine kinase activating domains in HEK293 cells co-transfected with STAT4 (Example 5A); assay type: cell-based; conditions: for basal signaling: without ligand
From the text: For this study, several tyrosine kinase activating domains were compared using a otherwise identical inducible cytokine receptor design. The tyrosine effector domain consists of a STAT5-activating sequence from IL7R fused to a STAT4-activating sequence from IL12Rb2. Each construct contains a membrane-targeting motif (CD8 SS), a dimerization domain (FKBP(F36V)), a tyrosine kinase activating domain derived from either the EpoR, GP130, PrIR, GHR, GCSFR, or TPOR/MPLR receptors, and a tyrosine effector domain consisting of the IL7R(316-459) cytotail fused to the IL12Rb2(775-825) peptide. Chimeric cytokine receptors also include an epitope tag for detection (Myc). The following inducible chimeric cytokine receptors were tested in this study:
HEK293 cells were transfected with constructs encoding the above inducible chimeric cytokine receptors, and a luciferase reporter for either STAT4 or STAT5. The luciferase reporters (Promega) encoded a luciferase under the control of either a STAT4 or STAT5 responsive element. As HEK293 cells lack STAT4, in wells transfected with the STAT4 reporter, a plasmid encoding constitutively-expressed STAT4 was transfected as well added. Transfected EpoR, GHR, and IL12Rb1+IL12Rb2 (the IL12 receptor) were used as positive controls. The ligand added to inducible chimeric cytokine receptors was AP1903. Epo was added to EpoR transfected cells, Growth Hormone to GHR transfected cells, and IL-12 to IL12 receptor transfected cells

CAR-T cells [5] = experiment: Phenotyping of CAR-T cells at day 8 post production (Example 7); assay type: cell-based, human; conditions: for cell phenotype after growth with AP1903: FIG. 18, FIG. 19
From the text: as §1, §2
At day 8 post production growth with AP1903 or IL2, cells were phenotyped.

STAT5 [6] = experiment: STAT5 luciferase reporter assay of small-molecule inducible Epo receptors in HEK293T cells (Example 2); assay type: cell-based; conditions: AP1903 added vs no ligand, FIG. 4
From the text: According to the construct name, receptors contain a membrane-targeting motif (CD8 signal sequence (CD8 SS) or myristoyl), a dimerization domain (FKBP(F36V) or mutants thereof), a portion of the EpoR that contains a transmembrane (EpoR(237-272)), a JAK2 binding motif (EpoR(273-338)), and/or a tyrosine effector domain (EpoR(339-508)). Constructs may also include epitope tags (Myc or V5) for western blot or flow analyses.
Vectors encoding the inducible chimeric cytokine receptors were transfected into HEK293T cells along with a luciferase reporter for the STAT5 transcription factor (Promega E4651). The reporter vector consists of a firefly luficerase expressed under the control of a STAT5 responsive DNA element. Upon addition of erythropoietin (Epo), the erythropoietin receptor (EpoR) activates the JAK2 kinase which then phosphorylates tyrosines on the EpoR cytotail to generate binding sites for STAT5. […] Epo was added to samples with cells transfected with EpoR, and AP1903 was added to the samples with cells transfected with fusions of the EpoR to FKBP. No Epo or AP1903 was added to samples to assess baseline signaling. In FIG. 4, “ligand” is either Epo or AP1903.

Stat5 reporter activity ([1]; FIG. 37C): induced Stat5 and Stat4 activation | Stat4 reporter activity ([1]; FIG. 37D): induced Stat5 and Stat4 activation
Molecule: BAFF: soluble BAFF trimers, TNF superfamily ligand

Molecule: CD8 SS-Myc-FKBP(F36V)-EpoR(237-338; L241G, L242P)-IL2Rb(333-551): inducible chimeric cytokine receptor
CAR-T cell growth with AP1903 (live cell count) (CAR-T cells [2]): slight growth | cytokine release without any treatment (CAR-T cells [3]): release IL13 and some TNFa (day 2, FIG. 23) that diminishes by day 8 | autoactivation (cytokine release in the absence of small molecule) (CAR-T cells [3]; day 2 and day 8): mildly autoactivating

Molecule: CD8 SS-Myc-FKBP(F36V)-EpoR(237-338; L241G, L242P)-IL2Rb(393-433, 518-551): inducible chimeric cytokine receptor
STAT5 signaling of cytotail fragments (STAT5 [4]): far greater signaling

Molecule: CD8 SS-Myc-FKBP(F36V)-EpoR(237-338; L241G, L242P)-IL7R(316-459)-IL12Rb2(775-825): inducible chimeric cytokine receptor
basal signaling (STAT4; FIG. 9): lowest basal signaling

Molecule: CD8 SS-Myc-FKBP(F36V)-EpoR(237-338; L241G, L242P)-IL7R(316-459): inducible chimeric cytokine receptor
CAR-T cell growth with AP1903 (live cell count) (CAR-T cells [2]): robust growth | CAR-T cell viability with AP1903 (CAR-T cells [2]): higher viability with AP1903 comparable to IL2 treatment | cell phenotype after growth with AP1903 (CAR-T cells [5]): more stem cell memory | cytokine release without any treatment (CAR-T cells [3]): No cytokine release was observed

Molecule: CD8 SS-Myc-FKBP(F36V)-EpoR(237-338; L241G, L242P)-IL7R(376-416, 424-459; Y456F): inducible chimeric cytokine receptor
STAT5 signaling of cytotail fragments (STAT5 [4]): fully recreated

Molecule: CD8 SS-Myc-FKBP(F36V)-EpoR(237-338; L241G, L242P)-IL12Rb2(775-825): inducible chimeric cytokine receptor
STAT4 signaling when used as a tyrosine effector domain (STAT4; peptide containing Y800, see Examples 3 and 5): sufficient to provide STAT4 signaling

Molecule: CD8 SS-Myc-FKBP(F36V)-EpoR(237-508; L241G, L242P)-V5: inducible chimeric cytokine receptor
STAT5 reporter signaling with ligand (STAT5 [6]): closest to the EpoR(1-508) positive control; also recorded: robust activity

Molecule: CD8 SS-Myc-FKBP(F36V)-GCSFR(614-710)-IL7R(316-459)-IL12Rb2(775-825): inducible chimeric cytokine receptor
signaling for STAT4 (STAT4; AP1903, FIG. 9): strongest signaling for STAT4 | basal signaling (STAT4; FIG. 9): had basal signaling

Molecule: GoCART: myristoylation sequence followed by a portion of MyD88 and CD40 fused to two repeats of FKBP(F36V); previously reported multimerizer [reference compound]
CAR-T cell growth with AP1903 (live cell count) (CAR-T cells [2]): slight growth | CAR-T cell viability with AP1903 (CAR-T cells [2]): higher viability with AP1903 comparable to IL2 treatment | cell phenotype after growth with AP1903 (CAR-T cells [5]): less stem cell memory and more effector memory | cell phenotype when grown further with IL2 (CAR-T cells [5]; IL2): somewhat more differentiated | cytokine release without any treatment (CAR-T cells [3]): GM-CSF, IL5, IL13, IL22, and MIP1a at day 2 and more so at day 8 | cytokine release with AP1903 (CAR-T cells [3]; day 2 and day 8, normalized to untreated TagBFP-expressing CAR-T Cells, FIG. 20, FIG. 21): robust cytokine release | autoactivation (cytokine release in the absence of small molecule) (CAR-T cells [3]; day 2 and day 8): strongly so

B1: CD8 SS-Myc-FKBP(F36V)-EpoR(237-338; L241G, L242P)-IFNAR2(310-515): inducible chimeric cytokine receptor (protein)
chain: KKKVWDYNYDDESDSDTEAAPRTSGGGYTMHGLTVRPLGQASATSTESQLIDPESEEEPDLPEVDVELPTMPKDSPQQLELLSGPCERRKSPLQDPFPEEDYSSTEGSGGRITFNVDLNSVFLRVLDDEDSDDLEAPLMLSSHLEEMVDPEDPDNVQSNHLLASGEGTQPTFPSPSSEGLWSEDAPSDQSDTSESDVDLGDGYIMR
CAR-T cell counts on post-production day 5 and day 8 (CAR-T cells [2]; FIG. 25): least growth | growth without signaling (CAR-T cells [2]; no treatment, over a week, FIG. 22): some less growth | IL-2 consumption (CAR-T cells [3]; Day 8 cytokine measurements): did not consume as much IL-2 | cytokine release without any treatment (CAR-T cells [3]): constitutively release small amounts of IL5 | autoactivation (cytokine release in the absence of small molecule) (CAR-T cells [3]; day 2 and day 8): mildly autoactivating
